Earlier results as cited in patent US10478452B2, “Antiviral pharmaceutical composition for topical use” (QUIMICA LUAR SRL, priority 2015, dated 2019).

Conditions: according to some studies

Nc1nc(O)c2ncn(COC(CO)CO)c2n1 [ganciclovir]
concentrations of intracellular triphosphate ganciclovir relative to those of acyclovir: approximately ten-fold higher
mean life of intracellular triphosphate: more than 24 hours
